From US6897036B2, “Fluorescent detection of peroxidase enzymes” (Lumigen, Inc., priority 2002, dated 2005)

Target: T1, HRP (Armoracia rusticana, UniProt P00433)
T1 sequence (P00433 31-338): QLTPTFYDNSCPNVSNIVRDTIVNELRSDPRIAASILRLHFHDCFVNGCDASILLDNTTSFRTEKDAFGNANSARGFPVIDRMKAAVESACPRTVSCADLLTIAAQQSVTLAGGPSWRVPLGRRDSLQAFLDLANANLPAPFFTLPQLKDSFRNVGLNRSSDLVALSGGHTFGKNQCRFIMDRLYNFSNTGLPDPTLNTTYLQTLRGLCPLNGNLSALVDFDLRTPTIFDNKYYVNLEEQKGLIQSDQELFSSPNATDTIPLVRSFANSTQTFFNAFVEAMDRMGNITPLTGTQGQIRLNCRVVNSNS
Experiment: Detection of HRP with acridan substrate 13 by chemiluminescence and fluorescence (FIG. 5)
Assay type: biochemical, horseradish
Conditions: 0.05 mM substrate
Procedure: FIG. 5 is a graph showing the linearity of detection of HRP using reagent compositions containing substrate 13 with fluorescence and chemiluminescence detection. A solution containing 0.05 mM compound 13, 0.1 mM 4-phenylphenol, 0.5 mM urea peroxide, 1 mM EDTA, 0.025% TWEEN 20 in 10 mM tris, pH 8.0 was reacted with the indicated quantities of HRP. Chemiluminescence intensity was measured 10 min after addition of enzyme, fluorescence at 515 nm was measured 30 min after addition of enzyme.
Chemiluminescent HRP detection limit using a reagent composition containing 0.05 mM 2′,3′,6′-trifluorophenyl 3-methoxy-10-methylacridan-9-carboxylate (compound 13), 0.1 mM 4-phenylphenol, 0.5 mM urea peroxide, 1 mM EDTA, and 0.025% TWEEN 20 in 0.01 M tris buffer, pH 8.0 was obtained on a Labsystems Luminoskan microtiter plate reader. White Microlite 1 FB 12-well strips (Dynatech Laboratories) containing 100 μL of the reagent in each well were reacted with 10 μL of HRP dilutions. Light intensity was measured at 10 min.
Sensitive detection of HRP was achieved using the reaction solutions of Example 22 producing fluorescence by the second mode. After making the chemiluminescence measurement, the strips were transferred to the fluorometer and fluorescence intensity determined at 530 nm with excitation at 380 nm.

Detectable amount of HRP (fluorescence, second mode) (tris pH 8.0, fluorescence at 530 nm, excitation 380 nm): less than 1 amol | Sensitivity of fluorescent detection compared with chemiluminescent detection (in words) (tris pH 8.0, same reaction solutions): equivalent to chemiluminescent detection
SMILES: COc1ccc2c(c1)N(C)c1ccccc1C2C(=O)Oc1c(F)ccc(F)c1F (centres unmarked) [Compound 13, 2′,3′,6′-trifluorophenyl 3-methoxy-10-methylacridan-9-carboxylate]
